“Also recorded” adds a separate entry of the source. Read-outs that look alike come from different tables or passages of the source.
Legend:
[1] = system: latently HIV-1 infected EF7 and CA5 T cells; conditions: PMA stimulation; cited from earlier work
[2] = system: latent HIV-1 infection in CA5 T cells; format: cell-based; conditions: for HIV-1 reactivation in combination with disulfiram: 24 hour pretreatment with bortezomib, disulfiram titrated, FIG. 3; for HIV-1 reactivation in combination with disulfiram / HIV-1 reactivation in combination with bryostatin: read 24 hours after addition; for HIV-1 reactivation in combination with bryostatin: 24 hour pretreatment with proteasome inhibitor, bryostatin titrated; for HIV-1 reactivation by the proteasome inhibitor by itself: CA5 T cells pretreated 24 hours
Description: Increased protein-ubiquitination for targeting to the proteasome by the E3 ubiquitin ligase GRAIL is a hallmark of T cell anergy. […] FIG. 2B is a graph showing bortezomib in combination with the activator bryostatin. FIG. 2C is a graph showing bortezomib in combination with the activator prostratin.
CA5 T cells were pretreated for 24 hours with bortezomib. Disulfiram was titrated on control cells or bortezomib pretreated T cells. Reactivation was measured 24 hours after disulfiram addition by determining the percentage of GFP-positive cells using flow cytometric analysis.
CA5 T cells were pretreated for 24 hours with carfilzomib. Bryostatin was titrated on control cells or carfilzomib pretreated T cells. Reactivation was measured 24 hours after bryostatin addition by determining the percentage of GFP-positive cells using flow cytometric analysis.
As mentioned above, T cell anergy has been reported to be associated with a series of changes in the kinase activity profile. A hallmark of T cell anergy is the expression of GRAIL (gene related to anergy in lymphocytes), a trans-membrane RING finger ubiquitin E3 ligase (Anandasabapathy et al., Immunity 18:535-547 (2003)). As other ubiquitin ligases, GRAIL tags proteins for degradation by the proteasome. […] In order to determine this, two FDA-approved proteasome inhibitors, bortezomib and carfilzomib, were tested for their ability to mobilize latent HIV-1 infection, either by themselves, or in combination with potentially therapeutically relevant known HIV-1 reactivating activators, such as bryostatin, prostratin, and disulfiram.

[3] = system: latent HIV-1 infection in J2574 reporter T cells; assay: Establishment of latent HIV-1 infection in J2574 reporter T cells after ionomycin pretreatment; format: cell-based; conditions: ionomycin pretreatment of J2574 T cells versus untreated control, independent of the level of virus input, FIG. 2A
Description: FIGS. 2A, 2B, and 2C show targeting anergy-related mechanisms alters HIV-1 latency control. […] Increased protein-ubiquitination for targeting to the proteasome by the E3 ubiquitin ligase GRAIL is a hallmark of T cell anergy. […] FIG. 2B is a graph showing bortezomib in combination with the activator bryostatin. FIG. 2C is a graph showing bortezomib in combination with the activator prostratin.
Without being bound by any theory, a working concept derived from the altered cellular phenotype observed in latently HIV-1 infected T cells could be that HIV-1 latency is correlated with the induction of a pseudoanergic state of the host-cell. HIV-1 infection has been reported to be associated with high levels of induced T cell anergy. Exposure to gp120 has been reported to be sufficient to trigger T cell anergy (Bouhdoud et al., Journal of Virology 74:2121-2130 (2000); Dybul et al., J. Immunol. 165:1685-91 (2000); Masci et al., Journal of Leukocyte Biology 74:1117-1124 (2003); and Schols and De Clercq, Journal of Virology 70:4953-4960 (1996)). Also, other retroviruses are reported to induce epigenetic changes in their host cells. Ubiquitin and CDK2 are also known to be involved in T cell anergy (Greenwald et al., Immunity 14:145-155 (2001); and Li et al., Nature Immunology 7:1157-65 (2006)). […]

For `CCCCCCCCCCCCCC(=O)O[C@@H]1[C@@H](C)[C@@]2(O)[C@@H](C=C(CO)C[C@]3(O)C(=O)C(C)=C[C@@H]23)[C@@H]2C(C)(C)[C@]12OC(C)=O` [PMA, phorbol 12-myristate 13-acetate], the “reactivation at the population level” value [1] is listed as > 90%.
In the case of `CC(C)C[C@H](NC(=O)[C@H](Cc1ccccc1)NC(=O)c1cnccn1)B(O)O` [bortezomib], the “HIV-1 reactivation in combination with prostratin” value ([2]; 24 hour pretreatment with bortezomib (5 nM), prostratin titrated, CA5 T cells, FIG. 2C) is reported as “interacted with prostratin”, the “HIV-1 reactivation in combination with disulfiram” value ([2]; CA5 T cells) is reported as “synergistically trigger HIV-1 reactivation” and the “HIV-1 reactivation in combination with disulfiram” value ([2]; CA5 T cells, listed as Bortezomib) is reported as “interacted”. The “activator concentrations required to trigger full HIV-1 reactivation at the population level” value ([2]; 24 hour pretreatment with proteasome inhibitor (bortezomib 5 nM), activators bryostatin or prostratin, CA5 T cells) was “reduces”, the “HIV-1 reactivation in combination with bryostatin” value ([2]; CA5 T cells) was “highly synergistic” and the “latently infected T cells in which latent HIV-1 infection was mobilized” value ([2]; bortezomib 5 nM by itself, CA5 T cells, FIG. 2B) was ~30%. The “HIV-1 reactivation by the proteasome inhibitor by itself” value [2] was “mobilizes latent HIV-1 infection”.
For `CC(C)C[C@H](NC(=O)[C@H](CCc1ccccc1)NC(=O)CN1CCOCC1)C(=O)N[C@@H](Cc1ccccc1)C(=O)N[C@@H](CC(C)C)C(=O)[C@@]1(C)CO1` [carfilzomib], the “HIV-1 reactivation in combination with bryostatin” value ([2]; CA5 T cells) was “trigger HIV-1 reactivation”, the “HIV-1 reactivation in combination with bryostatin” value ([2]; CA5 T cells, listed as Carfilzomib) was “potently interacted” and the “HIV-1 reactivation by the proteasome inhibitor by itself” value [2] was “triggered HIV-1 reactivation”.
For `C[C@H](CCC(=O)O)C[C@H](C)C[C@H](C)C(=O)/C=C(\O)[C@H](C)C[C@H](C)C/C=C/[C@@H](C)[C@@H](O)[C@@H](C)[C@@H](O)C[C@@H]1CC[C@@](C)([C@H]2CC[C@@](C)([C@@H](C)O)O2)O1` [ionomycin], the “amount of established stable latent infection events” value [3] was “promotes the establishment of latent HIV-1 infection; also recorded: almost doubled”.

Source: patent US20170014469A1, “METHODS OF RE[…] LATENT HUMAN IMMUNODEFICIENCY VIRUS” (priority 2013, published 2017)
